This is an account of results in patent US20230064983A1 (priority 2020, published 2023).

Molecules are shown by their SMILES. Where “and” joins values, the source holds several entries; their conditions need not be identical. Equal values may be shown once. Read-outs that look alike come from different tables or passages of the source. A value given as a limit tells only on which side of the number the result lay.

The target in assay [1] is T1, EGFR with insertion SVD between D770 and N771 (mutEGFR D770_N771insSVD) (Homo sapiens, UniProt P00533, DUP768-770).
T1 construct: amino acids R669 to A1210; made in house; host or cells: Sf9 insect cells (baculovirus)
In words: Exon20-Mutant-EGFR(D770_N771insSVD) kinase assay (TR-FRET). The format is biochemical. The following applies: 2 mM ATP, Table 2.

The target in another assay is T2, Bub1 (Homo sapiens, UniProt O43683).
T2 construct: catalytic domain of human Bub1 (amino acids 704-1085); His6 (N); made in house; host or cells: insect cells (Hi5)
In words: Bub1 high ATP kinase assay (TR-FRET). The assay is classed as biochemical. The following applies: 2 mM ATP, Table 3. In short, it runs like this: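 Read-out was the 665/620 nm TR-FRET ratio after 1 h at 22 °C with EDTA stop mix (streptavidin-XL665, anti-phosphoserine antibody, Eu anti-mouse IgG). Beforehand, a biotinylated peptide was phosphorylated for 60 min at 22 °C under high ATP by His6-tagged human Bub1 residues 704-1085 expressed in Hi5 cells, about 200 ng/ml.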
(In TR-FRET formats the signal depends on donor and acceptor labels being close together.)

The target of assay [2] is Ba/F3-EGFR-D770_N771insSVD cells (Homo sapiens, UniProt P00533, DUP768-770, cells depend on it). In words: Ba/F3 cell survival assay, EGFR D770_N771insSVD. The format is cell-based. The following applies: Cell Titer-Glo, 48 h, without IL-3; Table 4; read-out: BA/F3 (insSVD) IC50. Background: Cellular ATP, detected with luciferase, serves as a proxy for viable cell number.

A further assay addresses Ba/F3-EGFR-WT cells (Homo sapiens, UniProt P00533). The assay can be described thus: Ba/F3 cell survival assay, wild type EGFR. The format is cell-based. The following applies: Cell Titer-Glo, 48 h, with 10 ng/mL EGF; Table 4; read-out: BA/F3 (wild type) IC50.
Where [3] appears, read: Bub1 high ATP (2 mM) IC50, TR-FRET.
Where [4] appears, read: read-out: Bub1 high ATP (2 mM) IC50, TR-FRET.

Ba/F3-EGFR-WT cells, sequence (P00533 whole entry, looked up, change not shown): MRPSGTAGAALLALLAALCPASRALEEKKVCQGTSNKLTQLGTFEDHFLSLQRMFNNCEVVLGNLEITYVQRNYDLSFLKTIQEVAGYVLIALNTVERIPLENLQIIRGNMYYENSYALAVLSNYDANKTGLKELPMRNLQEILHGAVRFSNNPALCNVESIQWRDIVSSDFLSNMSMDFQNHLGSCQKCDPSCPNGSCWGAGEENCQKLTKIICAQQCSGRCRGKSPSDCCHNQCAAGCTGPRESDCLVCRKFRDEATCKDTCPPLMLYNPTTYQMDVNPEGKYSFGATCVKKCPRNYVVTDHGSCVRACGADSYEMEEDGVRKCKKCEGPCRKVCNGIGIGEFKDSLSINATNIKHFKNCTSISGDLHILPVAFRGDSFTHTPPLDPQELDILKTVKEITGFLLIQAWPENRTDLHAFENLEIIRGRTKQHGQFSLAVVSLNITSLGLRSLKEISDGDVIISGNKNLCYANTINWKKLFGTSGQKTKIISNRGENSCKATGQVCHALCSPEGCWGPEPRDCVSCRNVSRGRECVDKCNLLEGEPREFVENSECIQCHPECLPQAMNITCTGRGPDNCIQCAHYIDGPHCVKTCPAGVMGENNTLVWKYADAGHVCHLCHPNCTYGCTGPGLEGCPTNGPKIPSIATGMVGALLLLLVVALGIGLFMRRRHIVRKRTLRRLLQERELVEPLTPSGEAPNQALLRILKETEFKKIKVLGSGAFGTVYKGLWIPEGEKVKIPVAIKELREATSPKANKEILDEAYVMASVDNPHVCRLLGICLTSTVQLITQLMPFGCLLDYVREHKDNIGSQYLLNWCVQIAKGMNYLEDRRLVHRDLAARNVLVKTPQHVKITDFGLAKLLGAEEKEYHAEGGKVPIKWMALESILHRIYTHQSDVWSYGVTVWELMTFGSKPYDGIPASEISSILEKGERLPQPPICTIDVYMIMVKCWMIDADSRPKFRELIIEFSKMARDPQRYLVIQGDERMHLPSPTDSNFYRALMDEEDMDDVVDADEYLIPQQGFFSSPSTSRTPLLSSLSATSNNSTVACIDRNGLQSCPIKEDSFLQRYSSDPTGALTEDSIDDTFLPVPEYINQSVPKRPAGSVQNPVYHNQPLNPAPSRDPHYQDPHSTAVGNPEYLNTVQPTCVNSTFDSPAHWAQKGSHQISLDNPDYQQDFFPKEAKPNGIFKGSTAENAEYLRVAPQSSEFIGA
T1 sequence (P00533 other isoform, or with tags, fused parts or gaps DUP768-770): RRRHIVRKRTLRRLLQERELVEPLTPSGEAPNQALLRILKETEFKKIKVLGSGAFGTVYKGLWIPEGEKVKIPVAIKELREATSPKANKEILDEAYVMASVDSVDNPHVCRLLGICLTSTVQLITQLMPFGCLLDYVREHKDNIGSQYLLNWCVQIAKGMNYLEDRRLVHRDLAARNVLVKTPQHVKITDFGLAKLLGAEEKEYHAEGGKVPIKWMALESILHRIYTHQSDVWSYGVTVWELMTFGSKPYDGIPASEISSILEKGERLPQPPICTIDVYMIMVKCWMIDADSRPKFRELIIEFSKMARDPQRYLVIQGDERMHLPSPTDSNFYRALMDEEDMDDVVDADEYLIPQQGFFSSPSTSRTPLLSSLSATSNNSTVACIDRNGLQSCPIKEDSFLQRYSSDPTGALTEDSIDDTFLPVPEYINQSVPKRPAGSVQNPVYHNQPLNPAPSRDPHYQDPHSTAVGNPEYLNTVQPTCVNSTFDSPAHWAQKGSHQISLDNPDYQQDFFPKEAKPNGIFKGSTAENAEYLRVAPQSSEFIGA
T2 sequence (O43683 704-1085): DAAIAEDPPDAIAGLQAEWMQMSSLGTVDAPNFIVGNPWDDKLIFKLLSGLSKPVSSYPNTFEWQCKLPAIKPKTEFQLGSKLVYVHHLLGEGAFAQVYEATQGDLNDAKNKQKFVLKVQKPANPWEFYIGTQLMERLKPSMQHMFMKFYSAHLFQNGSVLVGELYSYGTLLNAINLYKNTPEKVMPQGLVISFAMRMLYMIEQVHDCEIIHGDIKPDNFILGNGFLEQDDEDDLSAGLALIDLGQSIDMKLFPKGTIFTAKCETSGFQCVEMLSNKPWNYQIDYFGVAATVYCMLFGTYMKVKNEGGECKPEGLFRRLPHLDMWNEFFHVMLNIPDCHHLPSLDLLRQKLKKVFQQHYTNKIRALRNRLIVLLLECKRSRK
Ba/F3-EGFR-D770_N771insSVD cells, sequence (P00533 with tags, fused parts or gaps DUP768-770): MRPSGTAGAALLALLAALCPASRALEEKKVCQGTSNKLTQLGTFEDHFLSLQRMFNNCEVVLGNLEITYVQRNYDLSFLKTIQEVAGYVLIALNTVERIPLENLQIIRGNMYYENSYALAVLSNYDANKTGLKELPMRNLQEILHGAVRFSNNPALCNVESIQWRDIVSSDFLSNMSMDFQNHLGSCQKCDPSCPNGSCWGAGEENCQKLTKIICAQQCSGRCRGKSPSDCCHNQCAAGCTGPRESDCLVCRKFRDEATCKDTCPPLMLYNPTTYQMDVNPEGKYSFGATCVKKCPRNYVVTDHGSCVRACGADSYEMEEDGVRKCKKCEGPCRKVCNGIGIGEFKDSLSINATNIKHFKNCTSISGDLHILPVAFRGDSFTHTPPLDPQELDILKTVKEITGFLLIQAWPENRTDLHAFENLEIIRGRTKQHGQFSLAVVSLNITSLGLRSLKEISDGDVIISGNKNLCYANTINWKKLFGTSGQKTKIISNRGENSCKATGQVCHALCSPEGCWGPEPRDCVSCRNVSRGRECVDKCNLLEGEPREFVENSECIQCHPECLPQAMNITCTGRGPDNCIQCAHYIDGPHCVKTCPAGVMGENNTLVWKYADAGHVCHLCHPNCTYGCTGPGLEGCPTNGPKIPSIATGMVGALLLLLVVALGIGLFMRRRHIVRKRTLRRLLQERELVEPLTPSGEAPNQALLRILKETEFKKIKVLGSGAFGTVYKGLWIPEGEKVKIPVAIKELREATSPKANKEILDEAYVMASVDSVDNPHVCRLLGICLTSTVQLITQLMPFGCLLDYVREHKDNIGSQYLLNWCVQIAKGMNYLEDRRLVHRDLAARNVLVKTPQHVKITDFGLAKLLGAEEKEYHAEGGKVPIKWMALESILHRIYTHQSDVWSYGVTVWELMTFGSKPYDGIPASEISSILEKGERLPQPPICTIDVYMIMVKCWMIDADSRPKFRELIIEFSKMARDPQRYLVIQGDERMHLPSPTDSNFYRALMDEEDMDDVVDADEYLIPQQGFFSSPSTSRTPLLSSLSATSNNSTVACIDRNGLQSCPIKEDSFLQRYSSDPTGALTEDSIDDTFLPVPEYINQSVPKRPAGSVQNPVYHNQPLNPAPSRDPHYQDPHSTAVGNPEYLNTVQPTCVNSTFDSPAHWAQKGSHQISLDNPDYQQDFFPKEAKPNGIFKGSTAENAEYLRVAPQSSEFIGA

For orientation: IC50 means the midpoint of a concentration-inhibition curve. On to `COc1c(Cl)cccc1Nc1c(-c2ccncc2OCC(C)OC)[nH]c2c1C(=O)N[C@H](C)C2` (single isomer, unassigned) [Example 81], for which, in assay [1], the “mutEGFR (D770_N771insSVD) kinase assay IC50” value (shortened to “mutEGFR”) was 0.157 nM. The same compound showed an IC50 against Bub1 (setting [3]) of 4870 nM. The GI50 is 44 nM in assay [2] and 583 nM on Ba/F3-EGFR-WT cells.

With `COc1c(Cl)cccc1Nc1c(-c2ccncc2OCC(C)OC)[nH]c2c1C(=O)N[C@H](C)C2` (single isomer, unassigned) [Example 82], the “mutEGFR” value in assay [1] turned out to be 0.143 nM. The compound further gave an IC50 against Bub1 (setting [3]) of 2710 nM. The values for the GI50 (in assay [2]; on Ba/F3-EGFR-WT cells) were 13.9 nM and 248 nM, respectively.

Consider `COc1c(Cl)cccc1Nc1c(-c2ccncc2OCC2CCCCN2C)[nH]c2c1C(=O)N[C@H](C)C2` (single isomer, unassigned) [Example 84], for which the “mutEGFR” value in assay [1] was 0.657 nM. Also, on Bub1 (setting [3]), the half-inhibitory concentration (IC50) is greater than 20000 nM. The GI50 is 16.1 nM in assay [2] and 379 nM on Ba/F3-EGFR-WT cells.

Take `COc1c(Cl)cccc1Nc1c(-c2ccncc2OCC2CCCCN2C)[nH]c2c1C(=O)N[C@H](C)C2` (single isomer, unassigned) [Example 85]: the “mutEGFR” value in assay [1] was 0.948 nM. The IC50 on Bub1 (setting [4]) was greater than 20000 nM. Besides, the GI50 in assay [2] was 103 nM; at Ba/F3-EGFR-WT cells it was 1170 nM.

Take `COc1c(Cl)cccc1Nc1c(-c2ccncc2OCCC2CCCCO2)[nH]c2c1C(=O)N[C@H](C)C2` (single isomer, unassigned) [Example 88]: the “mutEGFR” value in assay [1] came out at 0.326 nM. The same compound returned an IC50 against Bub1 (setting [3]) of 978 nM. Besides, the GI50 in assay [2] stood at 70.4 nM; at Ba/F3-EGFR-WT cells, 634 nM.

As for `COc1c(Cl)cccc1Nc1c(-c2ccncc2OC[C@@H]2COCCN2C)[nH]c2c1C(=O)NCC2CCF` (single isomer, unassigned) [Example 89], in assay [1], the “mutEGFR” value came to 0.278 nM. The same compound displayed an IC50 against Bub1 (setting [3]) of 15600 nM. Besides, the results for the GI50 (in assay [2]; at Ba/F3-EGFR-WT cells) were 18.2 nM and 425 nM, respectively.

`COc1c(Cl)cccc1Nc1c(-c2ccncc2OC[C@@H]2COCCN2C)[nH]c2c1C(=O)NCC2CCF` (single isomer, unassigned) [Example 90]: in assay [1], the “mutEGFR” value was 0.499 nM. For the same compound, 3880 nM corresponded to half-maximal inhibition on Bub1 (setting [3]) (IC50). Moreover, the GI50 amounted to 83.8 nM in assay [2] and 1170 nM at Ba/F3-EGFR-WT cells.

For the compound `COc1c(Cl)cccc1Nc1c(-c2ccncc2OCC2COC(C)(C)CO2)[nH]c2c1C(=O)NCC2C` (single isomer, unassigned) [Example 94, 3-(3-chloro-2-methoxy-anilino)-2-{3-[(5,5-dimethyl-1,4-dioxan-2-yl)methoxy]-4-pyridyl}-7-methyl-1,5,6,7-tetrahydropyrrolo[3,2-c]pyridin-4-one], in assay [1], the “mutEGFR” value was 0.631 nM. Also, on Bub1 (setting [3]), the IC50 is greater than 20000 nM. Further, the GI50 was 66.6 nM in assay [2] and 1080 nM at Ba/F3-EGFR-WT cells.

In the case of `COc1c(Cl)cccc1Nc1c(-c2ccncc2OCC2COC(C)(C)CO2)[nH]c2c1C(=O)NCC2C` (single isomer, unassigned) [Example 95, 3-(3-chloro-2-methoxy-anilino)-2-[3-[(5,5-dimethyl-1,4-dioxan-2-yl)methoxy]-4-pyridyl]-7-methyl-1,5,6,7-tetrahydropyrrolo[3,2-c]pyridin-4-one], in assay [1], the “mutEGFR” value came to 0.504 nM. For the same compound, the IC50 on Bub1 (setting [4]) is greater than 20000 nM. Further, the GI50 in assay [2] was 14.9 nM; on Ba/F3-EGFR-WT cells it was 415 nM.

Take `COc1c(Cl)cccc1Nc1c(-c2ccncc2OCC2COC(C)(C)CO2)[nH]c2c1C(=O)NCC2C` (single isomer, unassigned) [Example 96, 3-(3-chloro-2-methoxy-anilino)-2-[3-[(5,5-dimethyl-1,4-dioxan-2-yl)methoxy]-4-pyridyl]-7-methyl-1,5,6,7-tetrahydropyrrolo[3,2-c]pyridin-4-one]: the “mutEGFR” value in assay [1] was 0.985 nM. The IC50 on Bub1 (setting [4]) was greater than 20000 nM. The GI50 is 381 nM in assay [2] and 3430 nM at Ba/F3-EGFR-WT cells.

On to `COc1c(Cl)cccc1Nc1c(-c2ccncc2OCC2COC(C)(C)CO2)[nH]c2c1C(=O)NCC2C` (single isomer, unassigned) [Example 97, 3-(3-chloro-2-methoxy-anilino)-2-[3-[(5,5-dimethyl-1,4-dioxan-2-yl)methoxy]-4-pyridyl]-7-methyl-1,5,6,7-tetrahydropyrrolo[3,2-c]pyridin-4-one], for which, in assay [1], the “mutEGFR” value is 0.796 nM. In addition, on Bub1 (setting [4]), the IC50 is greater than 20000 nM. Also, the GI50 in assay [2] is 32.1 nM; on Ba/F3-EGFR-WT cells, 1130 nM.

As for `COc1c(Cl)cccc1Nc1c(-c2ccncc2OC[C@@H]2CCCO2)[nH]c2c1C(=O)NCC2CCC(F)(F)F` (single isomer, unassigned) [Example 98], the “mutEGFR” value in assay [1] is 0.525 nM. Moreover, on Bub1 (setting [3]), half-maximal inhibition (IC50) required 954 nM. The GI50 was 18.1 nM in assay [2] and 444 nM at Ba/F3-EGFR-WT cells.

With `COc1c(Cl)cccc1Nc1c(-c2ccncc2OC[C@@H]2CCCO2)[nH]c2c1C(=O)NCC2CCC(F)(F)F` (single isomer, unassigned) [Example 99], the “mutEGFR” value in assay [1] was 0.72 nM. The compound also came in with an IC50 against Bub1 (setting [3]) greater than 20000 nM. Besides, the results for the GI50 (in assay [2]; on Ba/F3-EGFR-WT cells) were 45.9 nM and 846 nM, respectively.

On to `COc1c(Cl)cccc1Nc1c(-c2ccncc2OC[C@@H]2CCCO2)[nH]c2c1C(=O)NCC2CC=C(F)F` (single isomer, unassigned) [Example 100], for which the “mutEGFR” value in assay [1] is 0.35 nM. Besides, the IC50 against Bub1 (setting [3]) stood at 3640 nM. Also, the values for the GI50 (in assay [2]; at Ba/F3-EGFR-WT cells) were 58.9 nM and 990 nM, respectively.

Regarding `COc1c(Cl)cccc1Nc1c(-c2ccncc2OC[C@@H]2CCCO2)[nH]c2c1C(=O)NCC2CC=C(F)F` (single isomer, unassigned) [Example 101], the “mutEGFR” value in assay [1] is 0.553 nM. For the same compound, the IC50 against Bub1 (setting [3]) is greater than 20000 nM. The GI50 in assay [2] was found to be 42.1 nM; on Ba/F3-EGFR-WT cells, 603 nM.

As for `COc1c(Cl)cccc1Nc1c(-c2ccncc2OC[C@@H]2COCCN2C)[nH]c2c1C(=O)NCC2CCO` (single isomer, unassigned) [Example 116], the “mutEGFR” value in assay [1] stood at 0.276 nM. Besides, on Bub1 (setting [3]), the IC50 came out at 13700 nM. The GI50 in assay [2] turned out to be 169 nM; on Ba/F3-EGFR-WT cells it was 2030 nM.

Take `Cc1c(Cl)cccc1Nc1c(-c2ccncc2OCC2CCCCO2)[nH]c2c1C(=O)NCC2C` (single isomer, unassigned) [Example 118, 3-(3-chloro-2-methyl-anilino)-7-methyl-2-[3-(tetrahydropyran-2-ylmethoxy)-4-pyridyl]-1,5,6,7-tetrahydropyrrolo[3,2-c]pyridin-4-one]: the “mutEGFR” value in assay [1] worked out at 0.431 nM. For the same compound, the IC50 at Bub1 (setting [3]) was > 20000 nM and 19400 nM. In addition, the results for the GI50 (in assay [2]; at Ba/F3-EGFR-WT cells) were 22.3 nM and 938 nM, respectively.

Take `Cc1c(Cl)cccc1Nc1c(-c2ccncc2OCC2CCCCO2)[nH]c2c1C(=O)NCC2C` (single isomer, unassigned) [Example 119, 3-(3-chloro-2-methyl-anilino)-7-methyl-2-[3-(tetrahydropyran-2-ylmethoxy)-4-pyridyl]-1,5,6,7-tetrahydropyrrolo[3,2-c]pyridin-4-one]: in assay [1], the “mutEGFR” value came out at 0.324 nM. At Bub1 (setting [3]), this compound returned an IC50 of 1520 nM. The GI50 in assay [2] was 54.7 nM; at Ba/F3-EGFR-WT cells it was 1290 nM.
